# Measurements from patent US20240218330A1, “COMPOSITIONS FOR IMPROVING THE TRANSDUCTION OF CELLS BY VIRAL VECTORS” (Ospedale San Raffaele S.r.l., priority 2021, published 2024).
# Tested on: unstimulated hHSPC
# Assay: lentiviral vector (LV) transduction of unstimulated HSPC, % GFP+ cells by flow cytometry
# Assay type: cell-based, human
# Details: for effect on transduction efficiency of quiescent HSPC: in presence of CsH, 4 h pre-exposure to single nucleoside or purine/pyrimidine mix, vs CsH only control, FIG. 3A-D; for LV transduction of unstimulated hHSPC vs DMSO control: FIG. 6D-E
# Experimental: Cyclosporine H (Sigma-Aldrich) was resuspended and stored following the manufacturer's instructions. Where indicated CsH was added to the transduction medium at 8 μM concentration and washed out with the vector 16-20 hours later. dNTPs (NEB N1201AA) were added to the transduction medium where indicated at 10 uM concentration and washed out with the vector 16-20 hours later. dA (D8668), dC (D0776), dG (D0901) and dT (T1895) were all purchased from Sigma-Aldrich and resuspended and stored following the manufacturer's instructions. dNs mix, single dNs or combinations of dNs (500-1000 μM each) were added to the culture media 4 h-2 h before transduction and washed out with the vector 16-20 hours later. For dosage experiment 25 μM to 1000 μM concentrations of each dN was tested.
# All cells were transduced at the indicated multiplicity of infection (MOI) as calculated by titration of vector stocks on 293T cells and expressed as transducing units (TU)/293T cell. For transduction, CB-derived HSPC were cultured in serum-free StemSpan medium supplemented with penicillin (100 IU/ml), streptomycin ([…]), 100 ng/ml recombinant human stem cell factor (rhSCF), 20 ng/ml recombinant human thrombopoietin (rhTPO), 100 ng/ml recombinant human Flt3 ligand (rhFlt3), and 20 ng/ml recombinant human IL6 (rhIL6) (all from Peprotech) 16 to 24 hours prior to transduction. Bone marrow and G-CSF mobilized peripheral blood CD34+ cells were cultured in CellGro medium (Cell Genix) supplemented with penicillin (100 IU/ml), streptomycin ([…]) and a cocktail of cytokines: 60 ng/ml IL-3, 100 ng/ml TPO, 300 ng/ml SCF, and 300 ng/ml FLT-3L (all from Cell Peprotech). HSPC were then transduced at a concentration of 1×10^6 cells per milliliter with the vector for 16 hours at the indicated multiplicity of infection (MOI), expressed as transducing units (TU)/293T cell, in the same medium. After transduction cells were washed and maintained in serum-free medium supplemented with cytokines as above until the reading of the percentage of positive cells by FACS, after which they were maintained in IMDM supplemented with 10% FBS, 25 ng/ml rhSCF, 5 ng/ml rhIL6-3, 25 ng/ml rhFlt3 and 5 ng/ml rhTPO. Unstimulated HSPC were transduced freshly isolated in StemSpan or CellGro medium supplemented with penicillin (100 IU/ml), streptomycin ([…]) for 16-24 hours and then maintained in presence of human cytokines and […] of the reverse-transcriptase inhibitor 3TC (from SIGMA) to avoid subsequent transduction due to cytokines stimulation. Unstimulated murine Lin-HSPC were transduced freshly isolated in serum-free StemSpan medium (StemCell Technologies) containing penicillin, streptomycin and glutamine at a concentration of 1×10^6 cells/ml for 16-20 hours and then maintained in presence of a combination of murine cytokines (20 ng/ml IL-3, 100 ng/ml SCF, 100 ng/ml Flt-3L, 50 ng/ml TPO all from Peprotech). MDM were transduced 7-10 days after differentiation. Activated T lymphocytes were transduced at a concentration of 10^6 cells/ml, after 3 days of stimulation with Dynabeads human T-activator CD3/CD28. Total CD14^− PBMC were transduced fresh at a concentration of 10^6 cells/ml for measurement of transduction.
# GFP expression in transduced cells was measured 3-5 days post-transduction. Adherent MDM were detached by Tripsin-EDTA, washed and resuspended in PBS containing 2% fetal bovine serum (FBS). Cells grown in suspension were washed and resuspended in PBS containing 2% FBS. To measure HSPC subpopulation composition cells were harvested and incubated with anti-human receptor blocking antibodies for 15 min at 4° C. and then stained for 20 min at 4° C. with anti-human CD34 (RRID:AB_10827793), CD133 (RRID:AB_244346), CD90 (RRID:AB_559869) antibodies. […]
# [1] = 7.5 μM Orotic Acid or 1 mM UMP alone, similarly to dNs alone
# [2] = 7.5 μM Orotic Acid or 1 mM UMP combined with 8 μM CsH
SMILES,effect on transduction efficiency of quiescent HSPC,LV transduction of unstimulated hHSPC vs DMSO control [1],LV transduction of unstimulated hHSPC vs DMSO control [2]
"Nc1ccn([C@H]2C[C@H](O)[C@@H](CO)O2)c(=O)n1 [dC, Deoxycytidine]",gene marking levels comparable to the combination of all dNs,,
"Nc1nc2c(ncn2[C@H]2C[C@H](O)[C@@H](CO)O2)c(=O)[nH]1 [dG, Deoxyguanosine]",did not observe any effect,,
"Nc1ncnc2c1ncn2[C@H]1C[C@H](O)[C@@H](CO)O1 [dA, Deoxyadenosine]",did not observe any effect,,
"O=C(O)c1cc(=O)[nH]c(=O)[nH]1 [OA, orotic acid]",,increase in LV transduction,further significantly increased
"O=c1ccn([C@@H]2O[C@H](COP(=O)(O)O)[C@@H](O)[C@H]2O)c(=O)[nH]1 [UMP, uridine 5′-monophosphate]",,increase in LV transduction,further significantly increased
